Test results reported in ChEMBL document CHEMBL1201862, “PubChem BioAssay data set” (2004).
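96-well plates; 48 h exposure; 5 concentrations. Endpoints by linear interpolation between flanking doses. Not reached: highest tested concentration assigned. GI50 = concentration required for 50% inhibition of growth.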 Active and inactive are the calls of the source. No stated cut-off is given here; in the data, active = GI50 up to about 1.1 µM and inactive = higher.

Columns and labels:
Test in all cases: growth of human tumour cells (NCI), 48 h
SNB-19 = tested on: SNB-19
SK-MEL-2 = tested on: SK-MEL-2
UACC-257 = tested on: UACC-257
K562 = tested on: K562
TK-10 = tested on: TK-10
EKVX = tested on: EKVX
MCF7 = tested on: MCF7
NCI/ADR-RES = tested on: NCI/ADR-RES
U-251 = tested on: U-251
OVCAR-3 = tested on: OVCAR-3
NCI-H460 = tested on: NCI-H460
SK-OV-3 = tested on: SK-OV-3
HCT-15 = tested on: HCT-15
HCT-116 = tested on: HCT-116
MOLT-4 = tested on: MOLT-4
SF-268 = tested on: SF-268
HOP-62 = tested on: HOP-62
SNB-75 = tested on: SNB-75
OVCAR-5 = tested on: OVCAR-5
SK-MEL-5 = tested on: SK-MEL-5

| Compound | GI50 (SNB-19) | GI50 (SK-MEL-2) | GI50 (UACC-257) | GI50 (K562) | GI50 (TK-10) | GI50 (EKVX) | GI50 (MCF7) | GI50 (NCI/ADR-RES) | GI50 (U-251) | GI50 (OVCAR-3) | GI50 (NCI-H460) | GI50 (SK-OV-3) | GI50 (HCT-15) [µM] | GI50 (HCT-116) | GI50 (MOLT-4) | GI50 (SF-268) | GI50 (HOP-62) | GI50 (SNB-75) | GI50 (OVCAR-5) | GI50 (SK-MEL-5) |
| --- | --- | --- | --- | --- | --- | --- | --- | --- | --- | --- | --- | --- | --- | --- | --- | --- | --- | --- | --- | --- |
| C/C(=C/C(=O)Nn1c(Cc2ccccc2)n[nH]c1=O)C(=O)O | > 100 µM (inactive) | > 100 µM (inactive) | > 100 µM (inactive) | > 100 µM (inactive) | > 100 µM (inactive) | > 100 µM (inactive) | > 100 µM (inactive) | > 100 µM (inactive) | > 100 µM (inactive) | > 100 µM (inactive) | > 100 µM (inactive) | > 100 µM (inactive) | > 100 | > 100 µM (inactive) | > 100 µM (inactive) | > 100 µM (inactive) | > 100 µM (inactive) | > 100 µM (inactive) | > 100 µM (inactive) | > 100 µM (inactive) |
| C/C(O)=C/C(=O)c1[nH]c(C(=O)O)cc1C1CCN(Cc2ccccc2)C1=O (stereo not given) | 22.7 µM (inactive) | 22.8 µM (inactive) | 22.4 µM (inactive) | 29.4 µM (inactive) | 27.9 µM (inactive) | 21.3 µM (inactive) | 22.1 µM (inactive) | 12 µM (inactive) | 34.2 µM (inactive) | 21.7 µM (inactive) | 15.8 µM (inactive) | 22.8 µM (inactive) | 11 | 24.3 µM (inactive) | 20 µM (inactive) | 20 µM (inactive) | 15.8 µM (inactive) | 20.8 µM (inactive) | 25.2 µM (inactive) | 19.9 µM (inactive) |
| O=C(O)c1cnccc1-c1cc(=O)[nH]n1-c1ccccc1 | > 100 µM (inactive) | > 63.2 µM (inactive) | 66.1 µM (inactive) | 10 µM (inactive) | > 100 µM (inactive) | > 53.1 µM (inactive) | 43.2 µM (inactive) | 27.6 µM (inactive) | > 100 µM (inactive) | > 43.9 µM (inactive) | 35 µM (inactive) | > 100 µM (inactive) | 25.9 | 51.8 µM (inactive) | 13.9 µM (inactive) | > 83.2 µM (inactive) | 51.1 µM (inactive) | > 68.5 µM (inactive) | > 63.4 µM (inactive) | 52.4 µM (inactive) |
